In one data set the test system is human DLBCL xenografts. The note with it: mice; earlier work on 79-6; cited from earlier work.
Another data set has as its target BCL6-BTB (Homo sapiens, UniProt P41182). In words: MicroScale Thermophoresis binding to BCL6-BTB. The note with it: affinity to the BCL6-BTB domain. Here is the method: BCL6 is also required for normal development of germinal center (GC) B-cells.
Recombinant BCL6-BTB was labeled using the RED-NHS Labeling kit (NanoTemper Technologies). […] The label:protein ratio was determined using photometry at 650 nm and Bradford reagent. […] The labeled BCL6-BTB was adjusted to 400 nM with PBS (Thermo) buffer supplemented with 0.05% Tween-80 (Fisher scientific). […] After 10 min incubation, approximately 4 μL of each solution was filled into Monolith NT Standard Treated Capillaries (NanoTemper Technologies GmbH). Thermophoresis was measured using a Monolith NT.115 instrument (NanoTemper Technologies GmbH) at an ambient temperature of 25° C. with 5 s/30 s/5 s laser off/on/off times, respectively. Instrument parameters were adjusted with 90% LED power and 40% MST power. Data of three independent experiments were analyzed (NT.Analysis software version 1.5.41, NanoTemper Technologies) using the signal from Thermophoresis.
On the technique in general: Microscale thermophoresis detects binding through changes in fluorescence in a small temperature gradient.

For another data set, the system named is mice. The following applies: earlier work on 79-6; cited from earlier work.
A further data set addresses T1, PLZF-BTB (Homo sapiens, UniProt Q05516).
T1 construct: the repression activity of the HIC1, PLZF, or Kaiso BTB domains; expressed in transfected cells; host or cells: 293T
T1 sequence (Q05516 34-96 limits assumed): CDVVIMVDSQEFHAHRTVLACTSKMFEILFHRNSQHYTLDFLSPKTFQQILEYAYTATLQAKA
The following applies: earlier work on 79-6; cited from earlier work.

The next data set has as its target T2, HIC1-BTB (Homo sapiens, UniProt Q14526).
T2 construct: expressed in transfected cells; host or cells: 293T
T2 sequence (Q14526 47-110 limits assumed): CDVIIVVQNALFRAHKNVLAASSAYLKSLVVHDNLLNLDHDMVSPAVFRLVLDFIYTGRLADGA
The note with it: earlier work on 79-6; cited from earlier work.

For a further data set, the system named is Ly4 DLBCL cells. Nature of the data set: Growth inhibition of DLBCL cells, Ly4. The data set is classed as cell-based. The note with it: Table 9; Bcl6 independent; read-out: GI 50 Ly4. Here is the method: (§1) 50,000 cells per well were treated for 48 hours with different concentrations of the compounds in 96 well plates, using DMSO as a control. Then, viability was determined with Cell Titer Blue™ (Promega) and growth inhibition was calculated as the percentage of viable cells with respect to cells treated with DMSO alone. GI50 values were determined by dose-response curves.

Another data set concerns Ly7 DLBCL cells. In words: Growth inhibition of DLBCL cells, Ly7. Format: cell-based. In short, it runs like this: (§2)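 50,000 cells per well were exposed to a range of compound concentrations for 48 hours, with DMSO as control. Viability was read by Cell Titer Blue, growth inhibition expressed as percent viable cells relative to DMSO-treated cells, and GI50 taken from dose-response curves.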

A further data set deals with Karpas 422 DLBCL cells. Nature of the data set: Growth inhibition of DLBCL cells, Karpas 422. Format: cell-based. The note with it: Homo sapiens, Table 9, Bcl6 independent, read-out: GI 50 K422. The method, boiled down:
(§3)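 Percent viable cells relative to DMSO alone, assessed with Cell Titer Blue after 48-hour compound treatment of 50,000 cells per well, defined growth inhibition; dose-response curves yielded GI50.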

The next data set deals with Ly1B50 DLBCL cells. Nature of the data set: Growth inhibition of DLBCL cells, Ly1B50. The following applies: Table 9; Bcl6 independent; read-out: GI 50 Ly1B50. The data set is classed as cell-based. In short, it runs like this: as §2
The subject of another data set is Ly1 DLBCL cells. Nature of the data set: Growth inhibition of DLBCL cells, Ly1. The data set is classed as cell-based. The note with it: Table 9; Bcl6 dependent; read-out: GI 50 Ly1. Here is the method: as §1
293T cells were grown in Dulbecco's modified Eagles medium supplemented with 10% fetal bovine serum (FBS) (Gemini Bio-Products, Woodland, Calif.) and 1% penicillin-streptomycin. DLBCL cell lines OCI-Ly1, OCI-Ly1-B50, OCI-Ly7, OCI-Ly10 and OCI-Ly19 were grown in 80% Iscove's medium, 20% FBS and penicillin G/streptomycin. DLBCL cell lines Toledo, Farage, SU-DHL4, DOHH-2, SC-1, RCK8, TMD8, HBL-1, Ly3, Karpas 422 and SU-DHL6 were cultured in 90% RPMI medium, 10% FBS, 2 mM glutamine, 10 mM Hepes and penicillin G/streptomycin. All cell lines were cultured at 37° C. in a humidified atmosphere of 5% CO2.

In another data set the test system is Ly10 DLBCL cells. In words: Growth inhibition of DLBCL cells, Ly10. Format: cell-based. The note with it: Table 9, Bcl6 dependent, read-out: GI 50 Ly10. In short, it runs like this: as §2
In another data set the test system is Toledo DLBCL cells. In words: Growth inhibition of DLBCL cells, Toledo. The data set is classed as cell-based. The following applies: Homo sapiens. The method, boiled down:
as §3

The next data set relates to SUDHL6 DLBCL cells. In words: Growth inhibition of DLBCL cells, SUDHL6. The data set is classed as cell-based. The note with it: Homo sapiens, SU-DHL-6. In short, it runs like this: as §3
For another data set, the system named is WSU-DLCL2 DLBCL cells. Nature of the data set: Growth inhibition of DLBCL cells, WSU-DLCL2. The note with it: Homo sapiens, WSUDLCL2; Table 9; Bcl6 independent; read-out: GI 50 WSUDLCL2. The data set is classed as cell-based. Here is the method: as §1
A further data set relates to Ly3 DLBCL cells. In words: Growth inhibition of DLBCL cells, Ly3. The note with it: Table 9; Bcl6 dependent; read-out: GI 50 Ly3. Format: cell-based. In short, it runs like this: as §2
Setting [1] is: Table 9, Bcl6 dependent, read-out: GI 50 Ly7.
[2] abbreviates: Table 9, Bcl6 independent, read-out: GI 50 Toledo.
Setting [3] is: Table 9, Bcl6 dependent, read-out: GI 50 SUDHL6.
Where [4] appears, read: Table 10, BCL6 dependent, read-out: GI50 SUDHL6.

Where two headings read alike, the source gives them in different places. A value given as a limit tells only on which side of the number the result lay.

Data on four molecules can be found in US9943506B2, “BCL6 inhibitors as anticancer agents” (Cornell University, priority 2013, dated 2018).

Broadly, the Kd is the constant that tells how readily two partners part at equilibrium. A high value points to lower affinity. For `O=C(O)CC(C(=O)O)N1C(=O)/C(=C2/C(=O)Nc3ccc(Br)cc32)SC1=S` (centres unmarked) [Compound 79-6], the “effect on human DLBCL xenografts” value in the data set with human DLBCL xenografts is on record as “suppresses human DLBCL xenografts”. This molecule displayed a Kd on BCL6-BTB of roughly 120 µM. Besides, in the data set with mice, the toxicity entry is listed as “not toxic”. Also, the “inhibition of PLZF BTB domain” value on PLZF-BTB is on record as “not other BTB domains”. In addition, the “inhibition of HIC1 BTB domain” value at HIC1-BTB is reported as “not other BTB domains”.

`O=C(CN1C(=O)C(=O)c2cc(Cl)ccc21)OCc1ccc(F)cc1` [Compound 357]: the GI50 was greater than 125 µM in the data set on Ly4 DLBCL cells; 25 µM with Ly7 DLBCL cells (setting [1]); 30 ± 10 µM in the data set on Ly7 DLBCL cells (Table 10, BCL6 dependent); 58 µM with Karpas 422 DLBCL cells; 56 µM in the data set with Ly1B50 DLBCL cells; 81 µM in the data set with Ly1 DLBCL cells. For the same molecule, the GI50 in the data set on Ly10 DLBCL cells is 60 µM; in the data set with Toledo DLBCL cells (setting [2]), 51 µM; in the data set with Toledo DLBCL cells (Table 10, BCL6 independent), 50 ± 1 µM; with SUDHL6 DLBCL cells (setting [3]), 1 µM; with SUDHL6 DLBCL cells (setting [4]) it was 22 ± 3 µM; in the data set with WSU-DLCL2 DLBCL cells, 100 µM. Besides, in the data set on Ly3 DLBCL cells, the GI50 was 79 µM.

In the case of `O=C(CN1C(=O)C(=O)c2cc(Cl)ccc21)OCc1cccc(F)c1` [Compound 358], the GI50 with Ly4 DLBCL cells is greater than 125 µM; in the data set with Ly7 DLBCL cells (setting [1]), 20 µM; with Ly7 DLBCL cells (Table 10, BCL6 dependent), 40 ± 10 µM; in the data set with Karpas 422 DLBCL cells it was greater than 125 µM; in the data set on Ly1B50 DLBCL cells, greater than 125 µM; with Ly1 DLBCL cells it was greater than 125 µM. In addition, the GI50 in the data set with Ly10 DLBCL cells was greater than 125 µM; in the data set on Toledo DLBCL cells (setting [2]), 69 µM; with Toledo DLBCL cells (Table 10, BCL6 independent), 82 ± 20 µM; with SUDHL6 DLBCL cells (setting [3]), 2 µM; in the data set on SUDHL6 DLBCL cells (setting [4]), 27 ± 4 µM; in the data set with WSU-DLCL2 DLBCL cells, greater than 125 µM. Further, in the data set with Ly3 DLBCL cells, the GI50 is greater than 125 µM.

Regarding `C[C@@H](OC(=O)CN1C(=O)C(=O)c2cc(Cl)ccc21)c1ccccc1` [Compound 361], the GI50 in the data set with Ly4 DLBCL cells turned out to be 98 µM; with Ly7 DLBCL cells (setting [1]) it was 26 µM; in the data set with Karpas 422 DLBCL cells it was 20 µM; in the data set on Ly1B50 DLBCL cells, 103 µM; in the data set on Ly1 DLBCL cells it was 24 µM; with Ly10 DLBCL cells it was 166 µM. Moreover, the GI50 came out at 39 µM in the data set with Toledo DLBCL cells (setting [2]), 7 µM in the data set on SUDHL6 DLBCL cells (setting [3]), 41 µM in the data set on WSU-DLCL2 DLBCL cells and 56 µM in the data set with Ly3 DLBCL cells.
